Measured values reported in paper PMC6269118, “Populene D Analogues: Design, Concise Synthesis and Antiproliferative Activity” (Molecules, 2012).
Converted amounts (≈) assume the structure as drawn. Read-outs that look alike come from different tables or passages of the source.

Experiments:
[1] = system: U251 (glioma) cells; assay: Antiproliferative sulforhodamine B assay, U251; type: cell-based; details: Homo sapiens, U-251, 48 h treatment, SRB; for IC100: read-out: Total growth inhibition (TGI)
Experimental: (§1) The in vitro antiproliferative activity of populene analogues 2a–e and 3a–e was investigated toward nine human tumor cell lines [CNS (U251), breast (MCF-7), ovarian (NCI-ADR/RES, OVCAR-03), renal (786-0), non-small cell lung (NCI-H460), prostate (PC-3), colon (HT-29) and leukemia (k-562)] and one human normal cell line (HaCat, human keratinocytes). The populene D analogues were tested at concentrations between 0.25 and 250 µg/mL and doxorubicin (DOX 0.025–25 µg/mL) was used as positive control. […] To analyze the GI50 parameter, mean log GI50 was calculated by conversion of the GI50 values for each tumor cell line tested (not including the normal cell line HaCat) against a test compound and then these values were averaged.
(§2) Stock cultures were grown in 5 mL of RPMI 1640 (GIBCO BRL, Life Technologies) supplemented with 5% of fetal bovine serum. Penicillin:streptomycin (1,000 μg mL^−1:1,000 UI mL^‑1, 1 mL L^−1) was added to the experimental cultures.
(§3) Afterwards cells were fixed with 50% trichloroacetic acid and cell proliferation determined by spectrophotometric quantification (540 nm) of cellular protein content using sulforhodamine B assay[20]. Doxorubicin (0.025–25 mg/mL) was used as positive control. Three measurements were obtained at the beginning of incubation (time zero, T0) and 48 h post-incubation for compound-free (C) and tested (T) cells. Cell proliferation was determined according to the equation 100 × [(T − T0)/C − T0], for T0 < T ≤ C, and 100 × [(T − T0)/T0], for T ≤ T0 and a concentration-response curve for each cell line was plotted and, from these curves, GI50 (concentration causing 50% growth inhibition) and TGI (concentration that promotes total growth inhibition) were determined by means of non-linear regression analysis using software ORIGIN 8.0 (OriginLab Corporation) [20, 21] The average activity (mean of log GI50) of each compound tested was also determined using MS Excel software.

[2] = system: MCF-7 (breast) cells; assay: Antiproliferative sulforhodamine B assay, MCF-7; type: cell-based; details: Homo sapiens, MCF7, MCF-7 mammary, 48 h treatment, SRB; for IC100: read-out: Total growth inhibition (TGI)
Experimental: as §1, §2, §3

[3] = system: NCI-ADR/RES (ovarian expressing phenotype multiple drugs resistance) cells; assay: Antiproliferative sulforhodamine B assay, NCI-ADR/RES; type: cell-based; details: Homo sapiens, NCI-ADR/RES drug resistant ovary, 48 h treatment, SRB; for IC100: read-out: Total growth inhibition (TGI)
Experimental: as §1, §2, §3

[4] = system: 786-0 (renal) cells; assay: Antiproliferative sulforhodamine B assay, 786-0; type: cell-based; details: Homo sapiens, 786-0 kidney, 48 h treatment, SRB; for IC100: read-out: Total growth inhibition (TGI)
Experimental: as §1, §2, §3

[5] = system: PC-3 (prostate) cells; assay: Antiproliferative sulforhodamine B assay, PC-3; type: cell-based; details: Homo sapiens, Prostate cell, 48 h treatment, SRB; for IC100: read-out: Total growth inhibition (TGI)
Experimental: (§4) The populene D analogues were tested at concentrations between 0.25 and 250 µg/mL and doxorubicin (DOX 0.025–25 µg/mL) was used as positive control. […] To analyze the GI50 parameter, mean log GI50 was calculated by conversion of the GI50 values for each tumor cell line tested (not including the normal cell line HaCat) against a test compound and then these values were averaged.
as §2, §3

[6] = system: OVCAR-3 (ovarian) cells; assay: Antiproliferative sulforhodamine B assay, OVCAR-3; type: cell-based; details: Homo sapiens, OVCAR-3 ovary, 48 h treatment, SRB; for IC100: read-out: Total growth inhibition (TGI)
Experimental: as §4, §2, §3

[7] = system: HT-29 (colon) cells; assay: Antiproliferative sulforhodamine B assay, HT-29; type: cell-based; details: Homo sapiens, 48 h treatment, SRB; for IC100: read-out: Total growth inhibition (TGI)
Experimental: as §4, §2, §3

[8] = system: K-562 (leukemia) cells; assay: Antiproliferative sulforhodamine B assay, K-562; type: cell-based; details: Homo sapiens, K562, 48 h treatment, SRB; for IC100: read-out: Total growth inhibition (TGI)
Experimental: as §1
(§5) Cells in 96-well plates (100 μL cells/well) were exposed to various concentrations of compounds 2a–d and 3a–d diluted in DMSO (0.25, 2.5, 25 and 250 μg/mL) at 37 °C, 5% of CO2 for 48 h. […] Afterwards cells were fixed with 50% trichloroacetic acid and cell proliferation determined by spectrophotometric quantification (540 nm) of cellular protein content using sulforhodamine B assay[20]. Doxorubicin (0.025–25 mg/mL) was used as positive control. Three measurements were obtained at the beginning of incubation (time zero, T0) and 48 h post-incubation for compound-free (C) and tested (T) cells. Cell proliferation was determined according to the equation 100 × [(T − T0)/C − T0], for T0 < T ≤ C, and 100 × [(T − T0)/T0], for T ≤ T0 and a concentration-response curve for each cell line was plotted and, from these curves, GI50 (concentration causing 50% growth inhibition) and TGI (concentration that promotes total growth inhibition) were determined by means of non-linear regression analysis using software ORIGIN 8.0 (OriginLab Corporation) [20, 21] The average activity (mean of log GI50) of each compound tested was also determined using MS Excel software.

[9] = Antiproliferative sulforhodamine B assay, HaCat normal cell line; type: cell-based, human; details: human; HaCat normal immortalized keratinocytes, 48 h treatment, SRB
Experimental: as §1, §2, §3

[10] = system: HaCat (immortalized human keratinocytes); assay: as above; type: cell-based; details: 48 h treatment, SRB
Experimental: as §1, §2, §3

[11] = system: nine human tumor cell lines; assay: Average antiproliferative activity over the tumor cell line panel (NCI criteria); type: cell-based; details: for GI50: Homo sapiens, 48 h; for Cytostatic activity classified in words by NCI criteria on mean logGI50: weak 1.1-1.5, moderate 0-1.1, potent <0, inactive >1.5
Experimental: as §1, §5

[12] = system: NCI-H460 (lung, non-small cells) cells; assay: Antiproliferative sulforhodamine B assay, NCI-H460; details: for GI50: Homo sapiens, NCI-H460, 48 h; for Total growth inhibition (TGI): NCI-H460 lung, 48 h treatment, SRB
Experimental: as §4, §2, §3

[13] = average of logGI50 (GI50 in μg/mL) over tumor cell lines tested, not including HaCat, read-out: Mean logGI50 (converted)
[14] = class symbol by NCI's criteria on mean logGI50, read-out: Mean logGI50 activity class (NCI's criteria)

Compound | GI50 [1] [µg/mL] | GI50 [2] [µg/mL] | GI50 [4] [µg/mL] | GI50 [5] [µg/mL] | GI50 [6] [µg/mL] | GI50 [7] [µg/mL] | GI50 [8] [µg/mL] | IC100 [1] [µg/mL] | IC100 [2] [µg/mL] | GI50 [3] [µg/mL] | IC100 [3] [µg/mL] | IC100 [4] [µg/mL] | IC100 [5] [µg/mL] | IC100 [6] [µg/mL] | IC100 [7] [µg/mL] | IC100 [8] [µg/mL] | GI50 at 48 h [9] [µg/mL] | Total growth inhibition (TGI) [10] [µg/mL] | GI50 [11, 13] [µg/mL] | GI50 [11, 14] [µg/mL] | further results
COc1ccc2c(c1)C1=C(CC2)C(C)(C)OCC1C (centres unmarked) [2c, 2,4,5,6-Tetrahydro-9-methoxy-1,4,4-trimethyl-1H-benzo[f]isochromene] | 25 (≈ 96.8 µM) | 25 (≈ 96.8 µM) | 25 (≈ 96.8 µM) | 25 (≈ 96.8 µM) | 25 (≈ 96.8 µM) | 25 (≈ 96.8 µM) | 25 (≈ 96.8 µM) | 40 | 45.3 | 25 (≈ 96.8 µM) | 66.3 | 36.1 | 69.2 | 67 | 41.8 | 128 | 25 (≈ 96.8 µM) | 32.0 | 16.2 (≈ 62.8 µM) | 12.6 to 31.6 (≈ 48.7 to 122 µM) | –
COc1cc2c(cc1OC)C1=C(CC2)C(C)(C)OCC1C (centres unmarked) [2d, 2,4,5,6-Tetrahydro-8,9-dimethoxy-1,4,4-trimethyl-1H-benzo[f]isochromene] | > 250 | 38.8 (≈ 135 µM) | 45.8 (≈ 159 µM) | 71.4 (≈ 248 µM) | 193 (≈ 671 µM) | 23.1 (≈ 80.1 µM) | 84.6 (≈ 293 µM) | > 250 | > 250 | 101 (≈ 349 µM) | > 250 | > 250 | > 250 | > 250 | > 250 | > 250 | > 250 | >250 | > 50.1 | > 31.6 | Cytostatic activity classified in words by NCI criteria on mean logGI50 [11]: inactive; melting point: 115 to 117 °C
COc1cccc2c1CCC1=C2C(C)COC1(C)C (centres unmarked) [2a, 4,5,6-Tetrahydro-7-methoxy-1,4,4-trimethyl-1H-benzo[f]isochromene] | 25 (≈ 96.8 µM) | 25 (≈ 96.8 µM) | 25 (≈ 96.8 µM) | 25 (≈ 96.8 µM) | 25 (≈ 96.8 µM) | 25 (≈ 96.8 µM) | 3.1 (≈ 12 µM) | 52 | 51.3 | 25 (≈ 96.8 µM) | 83.5 | 50.6 | 64.6 | 52.3 | 39.1 | > 250 | 25 (≈ 96.8 µM) | 66.9 | 14.8 (≈ 57.2 µM) | 12.6 to 31.6 (≈ 48.7 to 122 µM) | melting point: 65 to 67 °C
COc1cccc2c1C(=O)c1c(O)c3c(c(O)c1C2=O)C[C@@](O)(C(=O)CO)C[C@@H]3O[C@H]1C[C@H](N)[C@H](O)[C@H](C)O1 [Doxorubicine, doxorubicin, reference compound] | 0.062 (≈ 0.114 µM) | 0.21 (≈ 0.386 µM) | 0.04 (≈ 0.0736 µM) | 0.27 (≈ 0.497 µM) | 0.26 (≈ 0.478 µM) | 0.22 (≈ 0.405 µM) | 0.4 (≈ 0.736 µM) | 1.1 | 8.8 | 1.3 (≈ 2.39 µM) | 25 | 0.62 | 4.4 | 3.9 | 25 | 25 | 0.23 (≈ 0.423 µM) | 0.67 | 0.166 (≈ 0.305 µM) | < 1 | GI50 [12]: < 0.025 µg/mL; Total growth inhibition (TGI) [12]: 0.025 µg/mL
COc1ccc2c(c1)CCC1=C2C(C)COC1(C)C (centres unmarked) [2b, 2,4,5,6-Tetrahydro-8-methoxy-1,4,4-trimethyl-1H-benzo[f]isochromene] | 24.6 (≈ 95.2 µM) | 23.2 (≈ 89.8 µM) | 25.5 (≈ 98.7 µM) | 27 (≈ 105 µM) | 24.5 (≈ 94.8 µM) | 6.6 (≈ 25.5 µM) | 9.6 (≈ 37.2 µM) | 53.5 | 46.9 | 26.8 (≈ 104 µM) | 104 | 44 | 41.4 | 56.2 | 33 | > 250 | 26.1 (≈ 101 µM) | 54.4 | 15.1 (≈ 58.6 µM) | 12.6 to 31.6 (≈ 48.7 to 122 µM) | melting point: 89.5 to 91.3 °C

Now from value to molecule, other results behind:

GI50 [1] [µg/mL] | GI50 [2] [µg/mL] | GI50 [4] [µg/mL] | GI50 [5] [µg/mL] | GI50 [6] [µg/mL] | GI50 [7] [µg/mL] | GI50 [8] [µg/mL] | Compound | IC100 [1] [µg/mL] | IC100 [2] [µg/mL] | GI50 [3] [µg/mL] | IC100 [3] [µg/mL] | IC100 [4] [µg/mL] | IC100 [5] [µg/mL] | IC100 [6] [µg/mL] | IC100 [7] [µg/mL] | IC100 [8] [µg/mL] | GI50 at 48 h [9] [µg/mL] | Total growth inhibition (TGI) [10] [µg/mL] | GI50 [11, 13] [µg/mL] | GI50 [11, 14] [µg/mL] | further results
27.8 (≈ 114 µM) | 24.7 (≈ 101 µM) | 24.6 (≈ 101 µM) | 24.5 (≈ 100 µM) | 1.8 (≈ 7.37 µM) | 22.9 (≈ 93.7 µM) | 8.7 (≈ 35.6 µM) | CC1COC(C)(C)C2=C1c1cc(O)ccc1CC2 (centres unmarked) [3c, 1,4,4-Trimethyl-1,4,5,6-tetrahydro-2H-benzo[f]isochromen-9-ol] | 67.9 | 45 | 25 (≈ 102 µM) | 200 | 43 | 51.8 | 31.5 | 53.3 | 39.2 | 3.6 (≈ 14.7 µM) | >250 | 14.1 (≈ 57.8 µM) | 12.6 to 31.6 (≈ 51.5 to 129 µM) | Cytostatic activity classified in words by NCI criteria on mean logGI50 [11]: weak; melting point: 160 to 162 °C; GI50 [12]: 24.2 µg/mL (≈ 99 µM); Total growth inhibition (TGI) [12]: 45.9 µg/mL
46.3 (≈ 189 µM) | 108 (≈ 441 µM) | 36.8 (≈ 151 µM) | > 250 | > 250 | 78.4 (≈ 321 µM) | 41.2 (≈ 169 µM) | CC1COC(C)(C)C2=C1c1ccc(O)cc1CC2 (centres unmarked) [3b, 1,4,4-Trimethyl-1,4,5,6-tetrahydro-2H-benzo[f]isochromen-8-ol] | > 250 | > 250 | > 250 | > 250 | > 250 | > 250 | > 250 | > 250 | > 250 | > 250 | >250 | > 100 | > 31.6 | Cytostatic activity classified in words by NCI criteria on mean logGI50 [11]: inactive; melting point: 199 to 201 °C; GI50 [12]: 41.4 µg/mL (≈ 169 µM); Total growth inhibition (TGI) [12]: >250 µg/mL
19.6 (≈ 75.3 µM) | 5.5 (≈ 21.1 µM) | 5.6 (≈ 21.5 µM) | – | 3.9 (≈ 15 µM) | 19.5 (≈ 74.9 µM) | – | CC1COC(C)(C)C2=C1c1cc(O)c(O)cc1CC2 (centres unmarked) [3e, 1,4,4-Trimethyl-1,4,5,6-tetrahydro-2H-benzo[f]isochromene-8,9-diol] | 28.4 | 41.6 | 5.7 (≈ 21.9 µM) | > 250 | 19.4 | – | 34.4 | 39 | – | 4.2 (≈ 16.1 µM) | >250 | 8.13 (≈ 31.2 µM) | 1 to 12.6 (≈ 3.84 to 48.4 µM) | Cytostatic activity classified in words by NCI criteria on mean logGI50 [11]: moderate; melting point: 122 to 123 °C; GI50 [12]: 17.4 µg/mL (≈ 66.8 µM); Total growth inhibition (TGI) [12]: >250 µg/mL
23.1 (≈ 84.2 µM) | 24.6 (≈ 89.7 µM) | 24.1 (≈ 87.8 µM) | – | 24.3 (≈ 88.6 µM) | 6 (≈ 21.9 µM) | – | COc1cc2c(cc1O)C1=C(CC2)C(C)(C)OCC1C (centres unmarked) [3d, 8-Methoxy-1,4,4-trimethyl-1,4,5,6-tetrahydro-2H-benzo[f]isochromen-9-ol] | 45.9 | 58.2 | 5.2 (≈ 19 µM) | 37.6 | 47.8 | – | 69.9 | 32.3 | – | 4.2 (≈ 15.3 µM) | 160.7 | 14.5 (≈ 52.7 µM) | 12.6 to 31.6 (≈ 45.9 to 115 µM) | Cytostatic activity classified in words by NCI criteria on mean logGI50 [11]: weak; melting point: 141 to 143 °C; GI50 [12]: 45.1 µg/mL (≈ 164 µM); Total growth inhibition (TGI) [12]: >250 µg/mL
> 250 | > 250 | 37.3 (≈ 153 µM) | > 250 | > 250 | > 250 | > 250 | CC1COC(C)(C)C2=C1c1cccc(O)c1CC2 (centres unmarked) [3a, 1,4,4-Trimethyl-1,4,5,6-tetrahydro-2H-benzo[f]isochromen-7-ol] | > 250 | > 250 | > 250 | > 250 | > 250 | > 250 | > 250 | > 250 | > 250 | > 250 | >250 | > 209 | > 31.6 | Cytostatic activity classified in words by NCI criteria on mean logGI50 [11]: inactive; melting point: 139.2 to 140.3 °C; GI50 [12]: > 250 µg/mL; Total growth inhibition (TGI) [12]: >250 µg/mL
